Experimental data published in the supplement of paper PMC8967900.

Key:
Assay in all cases: selective drug sensitivity score (sDSS, relative to normal bone marrow) (sDSS (score)); higher = more potent and effective on the cell line relative to normal bone marrow cells
Settings in all cases: 72 h
NALM-6 = tested on: NALM-6
ALL-PO = tested on: ALL-PO
P30-OHKUBO = tested on: P30-OHKUBO
HPB-ALL = tested on: HPB-ALL
PEER = tested on: PEER
KASUMI-2 = tested on: KASUMI-2
COG-LL-332h = tested on: COG-LL-332h
KOPN-8 = tested on: KOPN-8
REH = tested on: REH
COG-LL-394h = tested on: COG-LL-394h
MN-60 = tested on: MN-60
P12-ICHIKAWA = tested on: P12-ICHIKAWA
COG-LL-319h = tested on: COG-LL-319h
NALL-1 = tested on: NALL-1
HAL-01 = tested on: HAL-01
COG-LL-402h = tested on: COG-LL-402h
TMD5 = tested on: TMD5
JURKAT = tested on: JURKAT
DND-41 = tested on: DND-41
MHH-CALL-4 = tested on: MHH-CALL-4
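Note: ALL cell lines in 384-well plates, five doses spanning 10,000-fold, each plate scaled between vehicle and 100 µmol/L benzalkonium chloride controls, sDSS an adapted area-under-curve metric.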

O=C(NCc1ccncc1)C12CC3CC(C1)CC(c1ccc(Cl)cc1)(C3)C2 (top concentration 50000 nM)
selective drug sensitivity score (NALM-6): -0.22 | selective drug sensitivity score (ALL-PO): 3.28 | selective drug sensitivity score (P30-OHKUBO): 3.18 | selective drug sensitivity score (HPB-ALL): 1.88 | selective drug sensitivity score (PEER): 2.88 | selective drug sensitivity score (KASUMI-2): -0.42 | selective drug sensitivity score (COG-LL-332h): 2.08 | selective drug sensitivity score (KOPN-8): 4.48 | selective drug sensitivity score (REH): 5.18 | selective drug sensitivity score (COG-LL-394h): 2.88 | selective drug sensitivity score (MN-60): -0.02 | selective drug sensitivity score (P12-ICHIKAWA): 3.68 | selective drug sensitivity score (COG-LL-319h): -0.62 | selective drug sensitivity score (NALL-1): 3.58 | selective drug sensitivity score (HAL-01): 4.28 | selective drug sensitivity score (COG-LL-402h): 0.08 | selective drug sensitivity score (TMD5): 0.68 | selective drug sensitivity score (JURKAT): 3.18 | selective drug sensitivity score (DND-41): 4.08 | selective drug sensitivity score (MHH-CALL-4): 2.78

Cc1cc2c(F)c(Oc3ncnn4cc(OC[C@@H](C)O)c(C)c34)ccc2[nH]1 [Brivanib] (top concentration 1000 nM)
selective drug sensitivity score (NALM-6): -0.04 | selective drug sensitivity score (ALL-PO): -0.04 | selective drug sensitivity score (P30-OHKUBO): -0.04 | selective drug sensitivity score (HPB-ALL): -0.04 | selective drug sensitivity score (PEER): -0.04 | selective drug sensitivity score (KASUMI-2): -0.04 | selective drug sensitivity score (COG-LL-332h): 0.16 | selective drug sensitivity score (KOPN-8): 0.16 | selective drug sensitivity score (REH): 0.96 | selective drug sensitivity score (COG-LL-394h): -0.04 | selective drug sensitivity score (MN-60): 2.76 | selective drug sensitivity score (P12-ICHIKAWA): 1.56 | selective drug sensitivity score (COG-LL-319h): -0.04 | selective drug sensitivity score (NALL-1): -0.04 | selective drug sensitivity score (HAL-01): -0.04 | selective drug sensitivity score (COG-LL-402h): -0.04 | selective drug sensitivity score (TMD5): -0.04 | selective drug sensitivity score (JURKAT): 1.46 | selective drug sensitivity score (DND-41): -0.04 | selective drug sensitivity score (MHH-CALL-4): -0.04

CN(C)C(=O)c1ccc(S(=O)(=O)c2ccc(NC(=O)[C@@](C)(O)C(F)(F)F)c(Cl)c2)cc1 [AZD7545] (top concentration 10000 nM)
selective drug sensitivity score (NALM-6): 3.7 | selective drug sensitivity score (ALL-PO): 2.6 | selective drug sensitivity score (P30-OHKUBO): 0.6 | selective drug sensitivity score (HPB-ALL): 0.3 | selective drug sensitivity score (PEER): 6.2 | selective drug sensitivity score (KASUMI-2): 5.3 | selective drug sensitivity score (COG-LL-332h): 0.5 | selective drug sensitivity score (KOPN-8): 3.1 | selective drug sensitivity score (REH): 4.4 | selective drug sensitivity score (COG-LL-394h): 4.1 | selective drug sensitivity score (MN-60): 3.3 | selective drug sensitivity score (P12-ICHIKAWA): 2.7 | selective drug sensitivity score (COG-LL-319h): 0.8 | selective drug sensitivity score (NALL-1): -0.2 | selective drug sensitivity score (HAL-01): -0.2 | selective drug sensitivity score (COG-LL-402h): -0.2 | selective drug sensitivity score (TMD5): -0.2 | selective drug sensitivity score (JURKAT): 7 | selective drug sensitivity score (DND-41): 0.1 | selective drug sensitivity score (MHH-CALL-4): -0.2

C[C@H]1CN(C2COC2)CCN1c1ccc(Nc2cc(-c3ccnc(N4CCn5c(cc6c5CC(C)(C)C6)C4=O)c3CO)cn(C)c2=O)nc1 [GDC-0853] (top concentration 1000 nM)
selective drug sensitivity score (NALM-6): 0 | selective drug sensitivity score (ALL-PO): 0 | selective drug sensitivity score (P30-OHKUBO): 0 | selective drug sensitivity score (HPB-ALL): 0.4 | selective drug sensitivity score (PEER): 0 | selective drug sensitivity score (KASUMI-2): 0 | selective drug sensitivity score (COG-LL-332h): 0 | selective drug sensitivity score (KOPN-8): 0 | selective drug sensitivity score (REH): 0.2 | selective drug sensitivity score (COG-LL-394h): 0 | selective drug sensitivity score (MN-60): 0 | selective drug sensitivity score (P12-ICHIKAWA): 0 | selective drug sensitivity score (COG-LL-319h): 2.8 | selective drug sensitivity score (NALL-1): 0 | selective drug sensitivity score (HAL-01): 0 | selective drug sensitivity score (COG-LL-402h): 1.1 | selective drug sensitivity score (TMD5): 0 | selective drug sensitivity score (JURKAT): 0 | selective drug sensitivity score (DND-41): 0 | selective drug sensitivity score (MHH-CALL-4): 0.2

CCCCCCCCCCCCCCCCCCOP(=O)([O-])OC1CC[N+](C)(C)CC1 [Perifosine] (top concentration 2500 nM)
selective drug sensitivity score (NALM-6): -0.36 | selective drug sensitivity score (ALL-PO): 0.94 | selective drug sensitivity score (P30-OHKUBO): -0.36 | selective drug sensitivity score (HPB-ALL): 3.64 | selective drug sensitivity score (PEER): -0.36 | selective drug sensitivity score (KASUMI-2): 8.74 | selective drug sensitivity score (COG-LL-332h): -0.36 | selective drug sensitivity score (KOPN-8): -0.26 | selective drug sensitivity score (REH): -0.36 | selective drug sensitivity score (COG-LL-394h): -0.36 | selective drug sensitivity score (MN-60): -0.36 | selective drug sensitivity score (P12-ICHIKAWA): -0.36 | selective drug sensitivity score (COG-LL-319h): -0.26 | selective drug sensitivity score (NALL-1): -0.36 | selective drug sensitivity score (HAL-01): -0.26 | selective drug sensitivity score (COG-LL-402h): 4.04 | selective drug sensitivity score (TMD5): -0.36 | selective drug sensitivity score (JURKAT): -0.36 | selective drug sensitivity score (DND-41): -0.36 | selective drug sensitivity score (MHH-CALL-4): -0.16

CC(=O)O[C@H]1C(=O)[C@@]2(C)[C@H]([C@H](OC(=O)c3ccccc3)[C@]3(O)C[C@H](OC(=O)[C@H](O)[C@@H](NC(=O)c4ccccc4)c4ccccc4)C(C)=C1C3(C)C)[C@]1(OC(C)=O)CO[C@@H]1C[C@@H]2O [Paclitaxel] (top concentration 1000 nM)
selective drug sensitivity score (NALM-6): 16.7 | selective drug sensitivity score (ALL-PO): 17.8 | selective drug sensitivity score (P30-OHKUBO): 22 | selective drug sensitivity score (HPB-ALL): 14.1 | selective drug sensitivity score (PEER): 22.2 | selective drug sensitivity score (KASUMI-2): 18.3 | selective drug sensitivity score (COG-LL-332h): 20.5 | selective drug sensitivity score (KOPN-8): 22.4 | selective drug sensitivity score (REH): 23.1 | selective drug sensitivity score (COG-LL-394h): 6.84 | selective drug sensitivity score (MN-60): -0.36 | selective drug sensitivity score (P12-ICHIKAWA): 19.9 | selective drug sensitivity score (COG-LL-319h): 21.5 | selective drug sensitivity score (NALL-1): 12.2 | selective drug sensitivity score (HAL-01): 0.74 | selective drug sensitivity score (COG-LL-402h): 12.8 | selective drug sensitivity score (TMD5): 8.14 | selective drug sensitivity score (JURKAT): 18.3 | selective drug sensitivity score (DND-41): 2.04 | selective drug sensitivity score (MHH-CALL-4): 7.24

CC(O)(CS(=O)(=O)c1ccc(F)cc1)C(=O)Nc1ccc(C#N)c(C(F)(F)F)c1 (stereo not given) [Bicalutamide] (top concentration 10000 nM)
selective drug sensitivity score (NALM-6): 2.02 | selective drug sensitivity score (ALL-PO): 3.92 | selective drug sensitivity score (P30-OHKUBO): -1.68 | selective drug sensitivity score (HPB-ALL): -1.68 | selective drug sensitivity score (PEER): -0.18 | selective drug sensitivity score (KASUMI-2): -1.68 | selective drug sensitivity score (COG-LL-332h): 0.72 | selective drug sensitivity score (KOPN-8): 4.92 | selective drug sensitivity score (REH): -1.68 | selective drug sensitivity score (COG-LL-394h): -0.18 | selective drug sensitivity score (MN-60): 1.42 | selective drug sensitivity score (P12-ICHIKAWA): -0.88 | selective drug sensitivity score (COG-LL-319h): 3.72 | selective drug sensitivity score (NALL-1): -1.68 | selective drug sensitivity score (HAL-01): -1.68 | selective drug sensitivity score (COG-LL-402h): -1.68 | selective drug sensitivity score (TMD5): -0.88 | selective drug sensitivity score (JURKAT): 0.42 | selective drug sensitivity score (DND-41): -1.68 | selective drug sensitivity score (MHH-CALL-4): -1.68

COc1cc(C)c(/C=C/C(C)=C/C=C/C(C)=C/C(=O)O)c(C)c1C [Acitretin] (top concentration 10000 nM)
selective drug sensitivity score (NALM-6): -1.5 | selective drug sensitivity score (ALL-PO): -0.3 | selective drug sensitivity score (P30-OHKUBO): -1.6 | selective drug sensitivity score (HPB-ALL): -0.1 | selective drug sensitivity score (PEER): -0.6 | selective drug sensitivity score (KASUMI-2): -1.6 | selective drug sensitivity score (COG-LL-332h): 0 | selective drug sensitivity score (KOPN-8): 1.8 | selective drug sensitivity score (REH): -1.6 | selective drug sensitivity score (COG-LL-394h): -1.6 | selective drug sensitivity score (MN-60): -1.6 | selective drug sensitivity score (P12-ICHIKAWA): -0.8 | selective drug sensitivity score (COG-LL-319h): -1.6 | selective drug sensitivity score (NALL-1): -1.6 | selective drug sensitivity score (HAL-01): -1.6 | selective drug sensitivity score (COG-LL-402h): -0.1 | selective drug sensitivity score (TMD5): -1.6 | selective drug sensitivity score (JURKAT): -1.2 | selective drug sensitivity score (DND-41): -1.6 | selective drug sensitivity score (MHH-CALL-4): -1.6

C=CC[C@@H]1/C=C(\C)C[C@H](C)C[C@H](OC)[C@H]2O[C@@](O)(C(=O)C(=O)N3CCCC[C@H]3C(=O)O[C@H](/C(C)=C/[C@@H]3CC[C@@H](O)[C@H](OC)C3)[C@H](C)[C@@H](O)CC1=O)[C@H](C)C[C@@H]2OC [Tacrolimus] (top concentration 10000 nM)
selective drug sensitivity score (NALM-6): 0.98 | selective drug sensitivity score (ALL-PO): 2.08 | selective drug sensitivity score (P30-OHKUBO): 16.1 | selective drug sensitivity score (HPB-ALL): 0.28 | selective drug sensitivity score (PEER): 1.38 | selective drug sensitivity score (KASUMI-2): -0.72 | selective drug sensitivity score (COG-LL-332h): 0.18 | selective drug sensitivity score (KOPN-8): 4.68 | selective drug sensitivity score (REH): 2.68 | selective drug sensitivity score (COG-LL-394h): 3.08 | selective drug sensitivity score (MN-60): -0.32 | selective drug sensitivity score (P12-ICHIKAWA): 1.58 | selective drug sensitivity score (COG-LL-319h): 12.7 | selective drug sensitivity score (NALL-1): 0.48 | selective drug sensitivity score (HAL-01): 8.58 | selective drug sensitivity score (COG-LL-402h): -0.72 | selective drug sensitivity score (TMD5): 13.5 | selective drug sensitivity score (JURKAT): 1.78 | selective drug sensitivity score (DND-41): 0.68 | selective drug sensitivity score (MHH-CALL-4): -0.12
